{"source": "patent US20020026053A1", "about": "“Novel 3-(substituted) -2- indolinones compounds and use thereof as inhibitors of protein kinase activity” (priority 1997, published 2002)"}
{"tested_on": "FLK-1 receptor", "experiment": "FLK-1 Assay (cellular/catalytic ELISA, VEGF-stimulated phosphotyrosine)", "assay_type": "cell-based", "parameters": "concentration or dose not given beside the values", "details": "protocol P.110", "how_it_was_run": "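NIH3T3 C7#3 cells engineered to express Flk-1 were serum-starved overnight (0.1% FBS), then exposed to compound for 2 h at 37 °C (final dilution 1:200, 0.5% DMSO) before VEGF stimulation. Lysates captured on anti-FLK-1 antiserum plates; phosphotyrosine detected by UB40 antibody/POD-ABTS ELISA versus untreated controls.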", "units": {"Flk Kinase % Inhibition (P.110)": "%"}}
{"smiles": "Cc1c(Br)cc(Br)c2c1C(=Cc1cccc(F)c1)C(=O)N2", "note": "[10736/H07]", "Flk Kinase % Inhibition (P.110)": 17.8}
{"smiles": "Cc1c(Br)cc(Br)c2c1C(=Cc1ccccc1F)C(=O)N2", "note": "[10736/H08]", "Flk Kinase % Inhibition (P.110)": 15.8}
{"smiles": "CCc1ccc(C=C2C(=O)Nc3c(Br)cc(Br)c(C)c32)cc1", "note": "[10736/H09]", "Flk Kinase % Inhibition (P.110)": 13.2}
{"smiles": "COc1cccc(C=C2C(=O)Nc3c(Br)cc(Br)c(C)c32)c1", "note": "[10736/H10]", "Flk Kinase % Inhibition (P.110)": 2.1}
{"smiles": "Cc1c(Br)cc(Br)c2c1C(=Cc1ccccc1Cl)C(=O)N2", "note": "[10736/H11]", "Flk Kinase % Inhibition (P.110)": 17.6}
{"smiles": "CCOc1ccc(C=C2C(=O)Nc3c(Br)cc(Br)cc32)cc1", "note": "[10737/A02]", "Flk Kinase % Inhibition (P.110)": "−5.5"}
{"smiles": "Cc1ccc(C=C2C(=O)Nc3c(Br)cc(Br)cc32)c(C)c1", "note": "[10737/A03]", "Flk Kinase % Inhibition (P.110)": "−1.2"}
{"smiles": "O=C1Nc2c(Br)cc(Br)cc2C1=Cc1cc(F)ccc1F", "note": "[10737/A04]", "Flk Kinase % Inhibition (P.110)": "−0.4"}
{"smiles": "O=C1Nc2c(Br)cc(Br)cc2C1=Cc1cccc(F)c1F", "note": "[10737/A05]", "Flk Kinase % Inhibition (P.110)": "−2.0"}
{"smiles": "COc1ccc(C=C2C(=O)Nc3c(Br)cc(Br)cc32)cc1F", "note": "[10737/A06]", "Flk Kinase % Inhibition (P.110)": "−20.3"}
{"smiles": "Cc1ccc(C)c(C=C2C(=O)Nc3c(Br)cc(Br)cc32)c1", "note": "[10737/A07]", "Flk Kinase % Inhibition (P.110)": 3.4}
{"smiles": "O=C1Nc2c(Br)cc(Br)cc2C1=Cc1ccc2ccccc2c1", "note": "[10737/A08]", "Flk Kinase % Inhibition (P.110)": 4.9}
{"smiles": "O=C1Nc2c(Br)cc(Br)cc2C1=Cc1ccc(Oc2ccccc2)cc1", "note": "[10737/A09]", "Flk Kinase % Inhibition (P.110)": "−10.1"}
{"smiles": "CC(C)(C)c1ccc(Oc2cccc(C=C3C(=O)Nc4c(Br)cc(Br)cc43)c2)cc1", "note": "[10737/A10]", "Flk Kinase % Inhibition (P.110)": 6.0}
{"smiles": "O=C1Nc2c(Br)cc(Br)cc2C1=Cc1cccc(Oc2cccc(C(F)(F)F)c2)c1", "note": "[10737/A11]", "Flk Kinase % Inhibition (P.110)": 6.2}
{"smiles": "CCOc1ccc(C=C2C(=O)Nc3ccc(I)cc32)cc1", "note": "[10737/B02]", "Flk Kinase % Inhibition (P.110)": "−3.0"}
{"smiles": "Cc1ccc(C=C2C(=O)Nc3ccc(I)cc32)c(C)c1", "note": "[10737/B03]", "Flk Kinase % Inhibition (P.110)": 7.0}
{"smiles": "O=C1Nc2ccc(I)cc2C1=Cc1cc(F)ccc1F", "note": "[10737/B04]", "Flk Kinase % Inhibition (P.110)": "−8.2"}
{"smiles": "O=C1Nc2ccc(I)cc2C1=Cc1cccc(F)c1F", "note": "[10737/B05]", "Flk Kinase % Inhibition (P.110)": "−4.6"}
{"smiles": "COc1ccc(C=C2C(=O)Nc3ccc(I)cc32)cc1F", "note": "[10737/B06]", "Flk Kinase % Inhibition (P.110)": 3.6}
{"smiles": "Cc1ccc(C)c(C=C2C(=O)Nc3ccc(I)cc32)c1", "note": "[10737/B07]", "Flk Kinase % Inhibition (P.110)": 10.5}
{"smiles": "O=C1Nc2ccc(I)cc2C1=Cc1ccc2ccccc2c1", "note": "[10737/B08]", "Flk Kinase % Inhibition (P.110)": 12.2}
{"smiles": "O=C1Nc2ccc(I)cc2C1=Cc1ccc(Oc2ccccc2)cc1", "note": "[10737/B09]", "Flk Kinase % Inhibition (P.110)": 17.5}
{"smiles": "CC(C)(C)c1ccc(Oc2cccc(C=C3C(=O)Nc4ccc(I)cc43)c2)cc1", "note": "[10737/B10]", "Flk Kinase % Inhibition (P.110)": 17.1}
{"smiles": "O=C1Nc2ccc(I)cc2C1=Cc1cccc(Oc2cccc(C(F)(F)F)c2)c1", "note": "[10737/B11]", "Flk Kinase % Inhibition (P.110)": 12.8}
{"smiles": "CCOc1ccc(C=C2C(=O)Nc3ccc(Br)c(C)c32)cc1", "note": "[10737/C02]", "Flk Kinase % Inhibition (P.110)": "−2.9"}
{"smiles": "Cc1ccc(C=C2C(=O)Nc3ccc(Br)c(C)c32)c(C)c1", "note": "[10737/C03]", "Flk Kinase % Inhibition (P.110)": 10.1}
{"smiles": "Cc1c(Br)ccc2c1C(=Cc1cc(F)ccc1F)C(=O)N2", "note": "[10737/C04]", "Flk Kinase % Inhibition (P.110)": "−20.1"}
{"smiles": "Cc1c(Br)ccc2c1C(=Cc1cccc(F)c1F)C(=O)N2", "note": "[10737/C05]", "Flk Kinase % Inhibition (P.110)": "−3.3"}
{"smiles": "COc1ccc(C=C2C(=O)Nc3ccc(Br)c(C)c32)cc1F", "note": "[10737/C06]", "Flk Kinase % Inhibition (P.110)": 8.7}
{"smiles": "Cc1ccc(C)c(C=C2C(=O)Nc3ccc(Br)c(C)c32)c1", "note": "[10737/C07]", "Flk Kinase % Inhibition (P.110)": 1.6}
{"smiles": "Cc1c(Br)ccc2c1C(=Cc1ccc3ccccc3c1)C(=O)N2", "note": "[10737/C08]", "Flk Kinase % Inhibition (P.110)": 8.9}
{"smiles": "Cc1c(Br)ccc2c1C(=Cc1ccc(Oc3ccccc3)cc1)C(=O)N2", "note": "[10737/C09]", "Flk Kinase % Inhibition (P.110)": 8.4}
{"smiles": "Cc1c(Br)ccc2c1C(=Cc1cccc(Oc3ccc(C(C)(C)C)cc3)c1)C(=O)N2", "note": "[10737/C10]", "Flk Kinase % Inhibition (P.110)": 16.0}
{"smiles": "Cc1c(Br)ccc2c1C(=Cc1cccc(Oc3cccc(C(F)(F)F)c3)c1)C(=O)N2", "note": "[10737/C11]", "Flk Kinase % Inhibition (P.110)": 13.3}
{"smiles": "CCOc1ccc(C=C2C(=O)Nc3ccc(S(=O)(=O)NC)cc32)cc1", "note": "[10737/D02]", "Flk Kinase % Inhibition (P.110)": 10.6}
{"smiles": "CNS(=O)(=O)c1ccc2c(c1)C(=Cc1ccc(C)cc1C)C(=O)N2", "note": "[10737/D03]", "Flk Kinase % Inhibition (P.110)": 12.1}
{"smiles": "CNS(=O)(=O)c1ccc2c(c1)C(=Cc1cc(F)ccc1F)C(=O)N2", "note": "[10737/D04]", "Flk Kinase % Inhibition (P.110)": 12.0}
{"smiles": "CNS(=O)(=O)c1ccc2c(c1)C(=Cc1cccc(F)c1F)C(=O)N2", "note": "[10737/D05]", "Flk Kinase % Inhibition (P.110)": 8.9}
{"smiles": "CNS(=O)(=O)c1ccc2c(c1)C(=Cc1ccc(OC)c(F)c1)C(=O)N2", "note": "[10737/D06]", "Flk Kinase % Inhibition (P.110)": 13.0}
{"smiles": "CNS(=O)(=O)c1ccc2c(c1)C(=Cc1cc(C)ccc1C)C(=O)N2", "note": "[10737/D07]", "Flk Kinase % Inhibition (P.110)": 12.9}
{"smiles": "CNS(=O)(=O)c1ccc2c(c1)C(=Cc1ccc3ccccc3c1)C(=O)N2", "note": "[10737/D08]", "Flk Kinase % Inhibition (P.110)": 15.3}
{"smiles": "CNS(=O)(=O)c1ccc2c(c1)C(=Cc1ccc(Oc3ccccc3)cc1)C(=O)N2", "note": "[10737/D09]", "Flk Kinase % Inhibition (P.110)": 13.9}
{"smiles": "CNS(=O)(=O)c1ccc2c(c1)C(=Cc1cccc(Oc3ccc(C(C)(C)C)cc3)c1)C(=O)N2", "note": "[10737/D10]", "Flk Kinase % Inhibition (P.110)": 23.2}
{"smiles": "CNS(=O)(=O)c1ccc2c(c1)C(=Cc1cccc(Oc3cccc(C(F)(F)F)c3)c1)C(=O)N2", "note": "[10737/D11]", "Flk Kinase % Inhibition (P.110)": 17.2}
{"smiles": "CCOc1ccc(C=C2C(=O)Nc3ccc(S(=O)(=O)Nc4ccc(C(F)(F)F)cc4)cc32)cc1", "note": "[10737/E02]", "Flk Kinase % Inhibition (P.110)": 14.3}
{"smiles": "Cc1ccc(C=C2C(=O)Nc3ccc(S(=O)(=O)Nc4ccc(C(F)(F)F)cc4)cc32)c(C)c1", "note": "[10737/E03]", "Flk Kinase % Inhibition (P.110)": 17.9}
{"smiles": "O=C1Nc2ccc(S(=O)(=O)Nc3ccc(C(F)(F)F)cc3)cc2C1=Cc1cc(F)ccc1F", "note": "[10737/E04]", "Flk Kinase % Inhibition (P.110)": 16.1}
{"smiles": "O=C1Nc2ccc(S(=O)(=O)Nc3ccc(C(F)(F)F)cc3)cc2C1=Cc1cccc(F)c1F", "note": "[10737/E05]", "Flk Kinase % Inhibition (P.110)": 14.9}
{"smiles": "COc1ccc(C=C2C(=O)Nc3ccc(S(=O)(=O)Nc4ccc(C(F)(F)F)cc4)cc32)cc1F", "note": "[10737/E06]", "Flk Kinase % Inhibition (P.110)": 11.1}
{"smiles": "Cc1ccc(C)c(C=C2C(=O)Nc3ccc(S(=O)(=O)Nc4ccc(C(F)(F)F)cc4)cc32)c1", "note": "[10737/E07]", "Flk Kinase % Inhibition (P.110)": 20.1}
{"smiles": "O=C1Nc2ccc(S(=O)(=O)Nc3ccc(C(F)(F)F)cc3)cc2C1=Cc1ccc2ccccc2c1", "note": "[10737/E08]", "Flk Kinase % Inhibition (P.110)": 21.3}
{"smiles": "O=C1Nc2ccc(S(=O)(=O)Nc3ccc(C(F)(F)F)cc3)cc2C1=Cc1ccc(Oc2ccccc2)cc1", "note": "[10737/E09]", "Flk Kinase % Inhibition (P.110)": 11.9}
{"smiles": "CC(C)(C)c1ccc(Oc2cccc(C=C3C(=O)Nc4ccc(S(=O)(=O)Nc5ccc(C(F)(F)F)cc5)cc43)c2)cc1", "note": "[10737/E10]", "Flk Kinase % Inhibition (P.110)": 18.9}
{"smiles": "O=C1Nc2ccc(S(=O)(=O)Nc3ccc(C(F)(F)F)cc3)cc2C1=Cc1cccc(Oc2cccc(C(F)(F)F)c2)c1", "note": "[10737/E11]", "Flk Kinase % Inhibition (P.110)": 18.3}
{"smiles": "CCOc1ccc(C=C2C(=O)Nc3ccc(S(=O)(=O)N4CCOCC4)cc32)cc1", "note": "[10737/F02]", "Flk Kinase % Inhibition (P.110)": 15.1}
{"smiles": "Cc1ccc(C=C2C(=O)Nc3ccc(S(=O)(=O)N4CCOCC4)cc32)c(C)c1", "note": "[10737/F03]", "Flk Kinase % Inhibition (P.110)": 16.3}
